Data: patent US11866430B2, “Naphthyridinone compounds useful as T cell activators” (priority 2018, dated 2024)

Key:
human DGKζ = human DGKζ (Homo sapiens (Human), UniProt Q13574); assay: DGKζ assay (detergent/lipid micelle substrate); type: biochemical; settings: detergent/lipid micelle substrate; read-out: DGKζ IC50
Summary of the method: (§1)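 Full-length human DGKα or DGKζ (C-terminal His tag, Sf9-expressed; 20 nM 4× stock) was preincubated 10 min at room temperature with PS/DAG octyl glucoside micelles in MOPS pH 7.5 buffer with MgCl2, CaCl2 and DTT. It was then started with ATP (300 uM addition) and run for 1 hr, with ADP-Glo luminescence read-out.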

human DGKα = human DGKα (Homo sapiens (Human), UniProt P23743); assay: biochemical; settings: detergent/lipid micelle substrate; read-out: DGKα IC50
human DGKα, sequence (P23743 other isoform, or with tags, fused parts or gaps): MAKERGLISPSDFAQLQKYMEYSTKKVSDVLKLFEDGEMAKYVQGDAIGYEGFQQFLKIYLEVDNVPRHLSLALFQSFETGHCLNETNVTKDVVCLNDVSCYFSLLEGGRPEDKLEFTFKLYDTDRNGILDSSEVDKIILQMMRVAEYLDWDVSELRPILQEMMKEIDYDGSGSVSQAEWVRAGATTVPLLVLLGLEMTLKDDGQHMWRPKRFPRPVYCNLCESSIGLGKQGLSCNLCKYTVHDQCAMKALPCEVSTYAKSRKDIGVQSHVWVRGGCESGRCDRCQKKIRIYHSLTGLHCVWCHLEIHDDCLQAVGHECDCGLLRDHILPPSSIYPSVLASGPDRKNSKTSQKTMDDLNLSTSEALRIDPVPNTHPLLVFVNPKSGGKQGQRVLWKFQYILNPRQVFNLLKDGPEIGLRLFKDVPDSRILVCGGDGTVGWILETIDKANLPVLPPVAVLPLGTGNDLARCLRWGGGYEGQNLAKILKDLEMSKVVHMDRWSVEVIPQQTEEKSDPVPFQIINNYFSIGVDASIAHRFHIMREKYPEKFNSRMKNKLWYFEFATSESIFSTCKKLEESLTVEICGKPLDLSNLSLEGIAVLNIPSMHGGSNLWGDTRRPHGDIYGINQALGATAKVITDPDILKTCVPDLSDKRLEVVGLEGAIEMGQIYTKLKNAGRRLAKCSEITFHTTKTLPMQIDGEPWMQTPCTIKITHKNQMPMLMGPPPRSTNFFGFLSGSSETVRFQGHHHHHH
Summary of the method: as §1

[1] = tested on: pre-activated CD4 T cells and Raji cells; assay: Raji CD4 T Cell IL2 Assay; type: cell-based; settings: Homo sapiens, Raji

human DGKζ, sequence (Q13574 other isoform, or with tags, fused parts or gaps): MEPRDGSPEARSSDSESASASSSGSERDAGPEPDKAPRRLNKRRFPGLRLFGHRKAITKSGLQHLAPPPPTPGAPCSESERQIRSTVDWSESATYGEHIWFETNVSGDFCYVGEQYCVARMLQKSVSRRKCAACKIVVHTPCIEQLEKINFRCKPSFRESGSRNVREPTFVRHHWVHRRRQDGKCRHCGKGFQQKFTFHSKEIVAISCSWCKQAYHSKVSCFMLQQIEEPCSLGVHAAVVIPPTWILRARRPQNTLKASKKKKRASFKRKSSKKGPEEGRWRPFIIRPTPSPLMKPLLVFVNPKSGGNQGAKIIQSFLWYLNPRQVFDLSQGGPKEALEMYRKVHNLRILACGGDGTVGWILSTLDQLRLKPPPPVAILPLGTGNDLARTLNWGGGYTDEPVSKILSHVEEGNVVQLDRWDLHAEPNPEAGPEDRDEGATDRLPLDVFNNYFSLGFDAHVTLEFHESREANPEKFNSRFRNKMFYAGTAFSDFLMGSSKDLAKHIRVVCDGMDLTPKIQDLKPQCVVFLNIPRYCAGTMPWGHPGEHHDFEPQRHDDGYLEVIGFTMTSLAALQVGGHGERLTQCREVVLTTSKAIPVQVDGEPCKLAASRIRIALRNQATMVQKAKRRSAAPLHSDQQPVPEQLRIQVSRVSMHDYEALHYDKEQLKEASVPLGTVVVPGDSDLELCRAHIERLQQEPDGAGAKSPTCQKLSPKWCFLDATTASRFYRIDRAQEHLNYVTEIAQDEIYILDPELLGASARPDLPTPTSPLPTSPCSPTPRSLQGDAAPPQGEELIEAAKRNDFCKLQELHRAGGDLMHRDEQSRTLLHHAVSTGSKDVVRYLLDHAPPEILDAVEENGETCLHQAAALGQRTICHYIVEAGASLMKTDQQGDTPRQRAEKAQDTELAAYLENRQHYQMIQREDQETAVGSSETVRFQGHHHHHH

Row | SMILES | IC50 (human DGKζ) | IC50 (human DGKα) | IC50 [1]
1 | COCCn1c(=O)c([N+](=O)[O-])c(N2CCN(C(c3ccc(F)cc3)c3ccc(F)cc3)CC2)c2nc(C#N)ccc21 [Example 147, 8-(4-(bis(4-fluorophenyl)methyl)piperazin-yl)-5-(2-methoxyethyl)-7-nitro-6-oxo-5,6-dihydro-1,5-naphthyridine-2-carbonitrile] | 3.6 µM | 76 µM | 0.3 µM
2 | N#CCn1c(=O)c([N+](=O)[O-])c(N2CCN(C(c3ccc(F)cc3)c3ccc(F)cc3)CC2)c2nc(C#N)ccc21 [Example 152, 8-(4-(bis(4-fluorophenyl)methyl)piperazin-1-yl)-5-(cyanomethyl)-7-nitro-6-oxo-5,6-dihydro-1,5-naphthyridine-2-carbonitrile] | 3.9 µM | 150 µM | 0.15 µM
3 | N#CCn1c(=O)c(C#N)c(N2CCN(C(c3ccc(F)cc3)c3ccc(F)cc3)CC2)c2nc(Br)ccc21 [Example 153, 4-(4-(bis(4-fluorophenyl)methyl)piperazin-1-yl)-6-bromo-1-(cyanomethyl)-2-oxo-1,2-dihydro-1,5-naphthyridine-3-carbonitrile] | 76 µM | 180 µM | 0.71 µM
4 | N#CCn1c(=O)c(C#N)c(N2CCN(C(c3ccc(F)cc3)c3ccccc3O)CC2)c2nc(Br)ccc21 (stereo not drawn) [Example 157, 6-bromo-1-(cyanomethyl)-4-(4-((4-fluorophenyl)(2-hydroxyphenyl)methyl)piperazin-1-yl)-2-oxo-1,2-dihydro-1,5-naphthyridine-3-carbonitrile] | 26 µM | 53 µM | 0.22 µM
5 | N#Cc1c(N2CCN(C(c3ccc(F)cc3)c3ccc(F)cc3)CC2)c2nc(Br)ccc2n(CC2CC2)c1=O [Example 161, 4-(4-(bis(4-fluorophenyl)methyl)piperazin-1-yl)-6-bromo-1-(cyclopropylmethyl)-2-oxo-1,2-dihydro-1,5-naphthyridine-3-carbonitrile] | > 81 µM | > 240 µM | 5.7 µM
6 | O=c1c([N+](=O)[O-])c(N2CCN(C(c3ccccc3)c3ccccc3)CC2)c2ncccc2n1CCC=C(F)F [Example 186, 4-(4-benzhydrylpiperazin-1-yl)-1-(4,4-difluorobut-3-en-1-yl)-3-nitro-1,5-naphthyridin-2(1H)-one] | > 240 µM | > 240 µM | 3 µM
7 | COCCOCCCn1c(=O)c([N+](=O)[O-])c(N2CCN(C(c3ccccc3)c3ccccc3)CC2)c2ncccc21 [Example 189, 4-(4-benzhydrylpiperazin-1-yl)-1-(3-(2-methoxyethoxy)propyl)-3-nitro-1,5-naphthyridin-2(1H)-one] | > 240 µM | 130 µM | 7.3 µM
8 | COCCCn1c(=O)c([N+](=O)[O-])c(N2CCN(C(c3ccccc3)c3ccccc3)CC2)c2ncccc21 [Example 190, 4-(4-benzhydrylpiperazin-1-yl)-1-(3-methoxypropyl)-3-nitro-1,5-naphthyridin-2(1H)-one] | > 240 µM | 58 µM | 4.2 µM
9 | Cn1c(=O)c(C#N)c(N2CCN(Cc3ccccc3O)CC2)c2nc(Cl)ccc21 [Example 198, 6-chloro-4-(4-(2-hydroxybenzyl)piperazin-1-yl)-1-methyl-2-oxo-1,2-dihydro-1,5-naphthyridine-3-carbonitrile] | 150 µM | 0.074 µM | 0.5 µM
10 | CCN(C)c1cccc(CN2CCN(c3c(C#N)c(=O)n(C)c4ccc(Cl)nc34)CC2)c1 [Example 199, 6-chloro-4-(4-(3-(ethyl(methyl)amino)benzyl)piperazin-1-yl)-1-methyl-2-oxo-1,2-dihydro-1,5-naphthyridine-3-carbonitrile] | > 240 µM | 0.48 µM | 0.38 µM
11 | C=CCOc1cc(F)cc2c1C(N1CCN(c3c(C#N)c(=O)n(C)c4ccc(Cl)nc34)CC1)CC2 (stereo not drawn) [Example 200, 4-(4-(7-(allyloxy)-5-fluoro-2,3-dihydro-1H-inden-1-yl)piperazin-1-yl)-6-chloro-1-methyl-2-oxo-1,2-dihydro-1,5-naphthyridine-3-carbonitrile] | > 240 µM | 24 µM | 1.6 µM
12 | CCc1ccc2c(n1)c(N1CCN(C(c3ccccc3)c3ccccc3)CC1)c(C#N)c(=O)n2C [Example 202, 4-(4-benzhydrylpiperazin-1-yl)-6-ethyl-1-methy-2-oxo-1,2-dihydro-1,5-naphthyridine-3-carbonitrile] | 12 µM | 31 µM | 0.4 µM
13 | Cn1c(=O)c(C#N)c(N2CCN(Cc3ccccc3NC(=O)c3ccccc3)CC2)c2nc(Br)ccc21 [Example 213, N-(2-((4-(6-bromo-3-cyano-1-methyl-2-oxo-1,2-dihydro-1,5-naphthyridin-4-yl)piperazin-1-yl)methyl)phenyl)benzamide] | > 240 µM | 3.1 µM | 0.71 µM
14 | Cn1c(=O)c(C#N)c(N2CCN(Cc3ccccc3NC(=O)Nc3ccccc3)CC2)c2nc(Br)ccc21 [Example 214, 1-(2-((4-(6-bromo-3-cyano-1-methyl-2-oxo-1,2-dihydro-1,5-naphthyridin-4-yl)piperazin-1-yl)methyl)phenyl)-3-phenylurea] | > 81 µM | 3.1 µM | 0.55 µM
15 | CC(=O)Nc1ccccc1CN1CCN(c2c(C#N)c(=O)n(C)c3ccc(Br)nc23)CC1 [Example 215, N-(2-((4-(6-bromo-3-cyano-1-methyl-2-oxo-1,2-dihydro-1,5-naphthyridin-4-yl)piperazin-1-yl)methyl)phenyl)acetamide] | > 81 µM | 4.1 µM | 0.48 µM
16 | CCn1ccc2c(CN3CCN(c4c(C#N)c(=O)n(C)c5ccc(Cl)nc45)CC3)cccc21 [Example 220, 6-chloro-4-(4-((1-ethyl-1H-indol-4-yl)methyl)piperazin-1-yl)-1-methyl-2-oxo-1,2-dihydro-1,5-naphthyridine-3-carbonitrile] | 89 µM | 1.7 µM | 0.063 µM
17 | Cn1c(=O)c(Br)c(N2CCN(C(c3ccc(F)cc3)c3ccc(F)cc3)CC2)c2ncccc21 [Example 230, 4-(4-(bis(4-fluorophenyl)methyl)piperazin-1-yl)-3-bromo-1-methyl-1,5-naphthyridin-2(1H)-one] | > 240 µM | 8.8 µM | 3.6 µM
18 | CN(C)C(=O)c1ccc2c(n1)c(N1CCN(C(c3ccc(F)cc3)c3ccc(F)cc3)CC1)c(C#N)c(=O)n2C [Example 231, 8-(4-(bis(4-fluorophenyl)methyl)piperazin-1-yl)-7-cyano-N,N,5-trimethyl-6-oxo-5,6-dihydro-1,5-naphthyridine-2-carboxamide] | > 240 µM | 170 µM | 3 µM
19 | Cc1ccc2c(n1)c(N1CCN(C(c3ccc(F)cc3)c3ccc(F)cc3)CC1)c(C(F)(F)F)c(=O)n2C [Example 232, 4-(4-(bis(4-fluorophenyl)methyl)piperazin-1-yl)-1,6-dimethyl-3-(trifluoromethyl)-1,5-naphthyridin-2(1H)-one] | > 240 µM | 150 µM | 1.1 µM
20 | COCCn1c(=O)c([N+](=O)[O-])c(N2CCN(C(c3ccccc3)c3ccccc3)CC2)c2ncccc21 [Example 244, 4-[4-(diphenylmethyl)piperazin-1-yl]-1-(2-methoxyethyl)-3-nitro-1,2-dihydro-1,5-naphthyridin-2-one] | > 81 µM | 32 µM | 0.69 µM
21 | Cc1ccc2c(n1)c(N1CCN(Cc3cc(OC(F)(F)F)ccc3O)CC1)c(C#N)c(=O)n2C [Example 262, 4-(4-{[2-hydroxy-5-(trifluoromethoxy)phenyl]methyl}piperazin-1-yl)-1,6-dimethyl-2-oxo-1,2-dihydro-1,5-naphthyridine-3-carbonitrile] | > 240 µM | 0.52 µM | 0.028 µM
22 | COc1cccc(O)c1CN1CCN(c2c(C#N)c(=O)n(C)c3ccc(Cl)nc23)CC1 [Example 264, 6-chloro-4-{4-[(2-hydroxy-6-methoxyphenyl)methyl]piperazin-1-yl}-1-methyl-2-oxo-1,2-dihydro-1,5-naphthyridine-3-carbonitrile] | > 240 µM | 0.62 µM | 0.036 µM
23 | Cn1c(=O)c(C#N)c(N2CCN(Cc3ccc(OC(F)(F)F)cc3O)CC2)c2nc(C#N)ccc21 [Example 265, 8-(4-{[2-hydroxy-4-(trifluoromethoxy)phenyl]methyl}piperazin-1-yl)-5-methyl-6-oxo-5,6-dihydro-1,5-naphthyridine-2,7-dicarbonitrile] | 36 µM | 0.034 µM | 0.039 µM
24 | Cn1c(=O)c(C#N)c(N2CCN(Cc3c(O)cccc3Cl)CC2)c2nc(Cl)ccc21 [Example 267, 6-chloro-4-{4-[(2-chloro-6-hydroxyphenyl)methyl]piperazin-1-yl}-1-methyl-2-oxo-1,2-dihydro-1,5-naphthyridine-3-carbonitrile] | > 240 µM | 0.31 µM | 0.048 µM
25 | Cn1c(=O)c(C#N)c(N2CCN(Cc3cccc(Br)c3O)CC2)c2nc(Cl)ccc21 [Example 268, 4-{4-[(3-bromo-2-hydroxyphenyl)methyl]piperazin-1-yl}-6-chloro-1-methyl-2-oxo-1,2-dihydro-1,5-naphthyridine-3-carbonitrile] | 120 µM | 0.68 µM | 0.051 µM
26 | Cn1c(=O)c(C#N)c(N2CCN(Cc3cc(OC(F)(F)F)ccc3O)CC2)c2nc(Br)ccc21 [Example 270, 6-bromo-4-(4-{[2-hydroxy-5-(trifluoromethoxy)phenyl]methyl}piperazin-1-yl)-1-methyl-2-oxo-1,2-dihydro-1,5-naphthyridine-3-carbonitrile] | > 240 µM | 0.19 µM | 0.059 µM
